# Columns and labels:
# Flk1+ MPCs = assay: CM differentiation from Flk1+ MPCs in OP9 co-culture system; type: cell-based, mouse
# Experimental: EMG7 mouse ESCs which have ┌-myosin heavy chain (MHC) promoter driven enhanced green fluorescent protein (GFP) gene and OP9 cells were a generous gift from Dr. Jun K. Yamashita (Kyoto University). EMG7 ESCs were plated on a 0.1% gelatin coated 60p dish and maintained in a medium (GMEM, Invitrogen) containing 10% knockout serum, 2-mercaptoethanol (Invitrogen), sodium pyruvate (Invitrogen), non-essential amino acid and antibiotics (Invitrogen). leukemia inhibitory factor (LIF), Blasticidin (Invitrogen) and G418 (Invitrogen) were added in the medium at the time of the medium change. OP9 cells were maintained in a medium (alpha MEM, Invitrogen) containing 20% of fetal bovine serum (FBS), 2-mercaptoethanol (Invitrogen), L-glutamine (Invitrogen) and antibiotics (Invitrogen). The medium was changed every 2 days for both EMG7 ESCs and OP9 cells. For induction of Flk1+MPCs, EMG7 ESCs were cultured and plated on a 0.1% gelatin coated 100 p dish in the differentiation medium (alpha MEM, Invitrogen) with contained 10% FBS, 2-mercaptoethanol (Invitrogen), L-glutamine (Invitrogen) and antibiotics (Invitrogen) for 4.5 days (96-112 hours). The medium was changed every 2 days. At 4.5 days, differentiated EMG7 ESCs were harvested with 0.025% trypsin-EDTA and antigen recovery was performed in the differentiation medium for 30 minutes in an incubator. Then, cells were washed using phosphate buffered saline/10% FBS and attached with biotin-conjugated anti-mouse Flk1+ antibody (eBioscience) and […] MicroBeads (Miltenyi Biotec). Flk1+ MPCs were sorted by AutoMACS Pro Separator (Miltenyi Biotec). Sorted Flk1+ MPCs were plated onto the mitomycin-C (MMC) (Ag scientific) treated confluent OP9 cells at a density of 1-2×10^4 cells/cm^2 and cultured in the differentiation medium. The medium was changed every 2 days. CsA (a gift from Novartis Pharma, Korea) was treated in sorted Flk1+ MPCs on OP9 cells. CsA was dissolved in dimethyl sulfoxide (DMSO) (Sigma) and diluted 2┌ g/mL in the differentiation medium at the time of medium change. 10┌ M of Y27632 (purchased from Calbiochem) were treated in sorted Flk1+MPCs on OP9 cells and sorted MHC GFP+CMs at the time of medium change. Analysis and sorting for CMs were performed at day 10.5. We harvested differentiated Flk1+ MPCs on OP9 cells with 0.25% trypsin-EDTA or dissociation buffer (Invitrogen). Cardiac troponin-T (cTnT)+ and ┌ smooth muscle actin (SMA)+ cells were analyzed after permeabilization using Cytofix/Cytoperm solution (BD Biosciences) for 15 min. After permeabilization, the cells were incubated for 30 min with anti-mouse cTnT (NeoMarkers) monoclonal antibody. […] Data were analyzed using FlowJo Version 7.5.4 software (TreeStar).
# ESC = assay: Estimation of number of ECs generated from one ESC in the 2D Matrigel system; type: cell-based, mouse; details: day 8.5
# Experimental: FIG. 16. Estimation and comparison of number of ECs generated from one ESC grown with indicated agents in the 2D Matrigel system at day 6.5 and 8.5. Estimation was calculated from 5 independent incubations.
# To maximize the amount of ECs obtained from ESC, we expanded the ICAM2+ ECs for 2 days using the same culture system with VEGF-A and Y27632 (FIG. 14A). When the ECs were grown for 2 days without either VEGF-A or Y27632, the population of CD31+/CD144+ ECs underwent a decrease of ˜30% from the initial population of ˜90% (FIG. 14B-D). […] This way, we were further able to obtain ˜4.2-fold expansion of CD31+/CD144+ ECs from the ICAM2+ ECs (FIGS. 14B-F) In the presence of VEGF-A, Y27632 promoted the adhesion of ICAM2+ ECs onto the plate by 1.3-fold at 6 hrs after plating (FIG. 14G). In these purified ECs, Y27632 and VEGF-A each promoted the proliferation of ECs to a similar level, and combination of Y27632 and VEGF-A promoted EC proliferation to a greater degree. […] Based on these findings, we conclude that further expansion of high purity ECs (>90%) could be achieved from ESC by combination of simultaneous ROCK suppression and VEGF-stimulation—these high purity ECs are hereafter referred to as “VEGF-A plus Y27632-induced and anti-ICAM2 antibody-sorted ECs (VYI-ECs)” (FIG. 14A). […]
# [1] = Y27632 10 μM plus CsA vs CsA only, day 10.5
smiles,measurement,setting,value
C[C@@H](N)[C@H]1CC[C@H](C(=O)Nc2ccncc2)CC1 [Y27632],area of self-beating CMs,Flk1+ MPCs; Y27632 10 μM plus CsA 2 μg/mL,strikingly increased
same,increase of cTnT+ CMs compared to control CsA only,"Flk1+ MPCs; Y27632 10 μM plus CsA 2 μg/mL, 6 days",~1.9 fold
same,increase of area of cTnT+ CMs,Flk1+ MPCs; [1],~2.3 fold
same,increase of area of αMHC GFP+ CMs,Flk1+ MPCs; [1],~1.7 fold
same,number of ECs generated from one ESC (from ˜73 Flk1+ MPCs),ESC,~36
